Measured values: paper PMC6467890, “A semi-synthetic neolignan derivative from dihydrodieugenol B selectively affects the bioenergetic system of Leishmania infantum and inhibits cell division” (Scientific Reports, 2019)
Where two headings read alike, the source gives them in different places.

What was measured:
[1] = test system: intracellular amastigotes of L. (L.) infantum; test: Intracellular amastigotes in peritoneal macrophages, light microscopy counting (infection index); type: cell-based, Leishmania (L.) infantum; conditions: for IC50: intracellular amastigotes in peritoneal macrophages, 96 h, read-out: IC50 (µM) ± SD Amastigote
Protocol: Peritoneal macrophages (1 × 10^5 cell/well) in 16-well slide chambers (NUNC) were infected with amastigotes at a ratio of 10:1 (amastigotes/macrophage) and treated with compounds (60 to 10 µM) for 96 h. Stained slides (Giemsa) were counted using light microscopy and IC50 determined by the infection index. Miltefosine was used as standard and untreated cells as a negative control.

[2] = test system: L. (L.) infantum promastigotes; test: Promastigote viability, MTT colorimetric method; type: cell-based, Leishmania (L.) infantum
Protocol: Promastigotes (1 × 10^6 parasites/well) in 96-well plates were incubated with the four compounds (150 to 1.2 μM) for 96 h at 24 °C. The parasite viability was determined using the MTT colorimetric method. Miltefosine was used as standard, with untreated cells as a negative control. A parallel promastigote activity assay was performed for 2 h with compound 2 (200 to 1.56 μM) for mechanism of action studies. After this period of incubation with compound 2, the parasites were washed twice with M-199 medium and the parasite viability was determined using the MTT colorimetric method for 4 h incubation at 24 °C.

[3] = test system: Fibroblast NCTC cells clone 929; test: Mammalian cytotoxicity, MTT colorimetric method; type: cell-based, murine; conditions: up to 200 μM, read-out: CC50 (µM) ± SD NCTC
Protocol: (§1) Fibroblast NCTC cells clone 929 (6 × 10^4 cells/well) in 96-well plates were incubated with the compounds up to 200 μM in a 5% CO2 humidified incubator at 37 °C. CC50 was determined by the MTT colorimetric method. The selectivity index was determined using the following equation: CC50 against NCTC cells/IC50 against amastigotes

[4] = test system: L. (L.) infantum promastigotes; test: Plasma membrane electric potential, DiSBAC2(3), flow cytometry; type: cell-based, Leishmania (L.) infantum
Protocol: Promastigotes (2 × 10^6 parasites/well) were treated with compound 2 (190 µM) for 1 and 2 h in HBSS + Glu at 24 °C. DiSBAC2(3) (Molecular Probes) were added (0.2 µM) and the parasites were incubated by 5 min[47]. The fluorescence was measure using Attune NxT flow cytometer (Thermo Fisher Scientific) with excitation and emission wavelengths of 488 and 574 nm (BL-2), respectively. Raloxifene (60 μM) was used as positive control and untreated parasites were used as negative control. Unstained parasites were used to set background fluorescence.

[5] = test system: bone marrow-derived macrophages, uninfected and infected with L. (L.) infantum; test: Cytokine level quantification, CBA Mouse Inflammation Kit, flow cytometry; type: cell-based, BALB/c mice; conditions: 48 h
Protocol: Bone marrow-derived macrophages (5 × 10^5 cells/well) in 24-well plates were infected with amastigotes at a ratio of 10:1 (amastigotes/macrophage) and kept at 37 °C in a 5% CO2 humidified incubator. Cell were treated with compound 2 (60 to 7.5 µM) for 48 h and the supernatant was collected and cytokine quantification was achieved using the CBA Mouse Inflammation Kit (BD Biosciences) according to the manufacturer’s instructions. The fluorescence was measured using BD LSRFortessa flow cytometer (BD Biosciences) and the data analysis was performed using the software FCAP Array (v.3). LPS (50 μg/mL) was used as positive control and untreated parasites were used as negative control.

[6] = test system: L. (L.) infantum promastigotes; test: Mitochondrial membrane electric potential, JC-1, flow cytometry; type: cell-based, Leishmania (L.) infantum; conditions: 190 µM, 1 and 2 h, compared to untreated parasites
Protocol: Promastigotes (2 × 10^6 parasites/well) were treated for 1 and 2 h with compound 2 (190 µM) in HBSS + Glu at 24 °C. JC-1 dye (Molecular Probes) was added at a final concentration of 10 μM. The parasites were incubated in the dark for 20 min and washed to eliminate the non-internalized dye. The fluorescence was measure using Attune NxT flow cytometer (Thermo Fisher Scientific) with excitation filter wavelengths of 488 nm and emission of 530 (BL-1) and 574 nm (BL-2). The mitochondrial membrane potential was determined using BL-2/BL-1 ratio[49]. Maximum depolarization was obtained in the presence of CCCP (100 μM) and untreated parasites were used as negative control. Unstained parasites were used to set background fluorescence.

[7] = test system: L. (L.) infantum promastigotes; type: cell-based, Leishmania (L.) infantum
Protocol: Promastigotes (2 × 10^6 parasites/well) were incubated in 96-well black polystyrene microplates with 1 µM of Sytox Green (Molecular Probes) in HANKS’ balanced salt solution (Sigma-Aldrich) supplemented with 10 mM D-Glucose (Sigma-Aldrich, HBSS + Glu) at 24 °C for 15 min in the dark[45]. Compound 2 (190 µM) was added and the fluorescence was measured every 20 min for up to 2 h, using a fluorimetric microplate reader (FilterMax F5 Multi-Mode, Molecular Devices) with excitation and emission wavelengths of 485 and 520 nm, respectively. Maximum permeabilization was obtained using 0.5% Triton X-100 and untreated parasites were used as negative control.

[8] = test system: L. (L.) infantum promastigotes; test: Cell cycle analysis, propidium iodide, flow cytometry; type: cell-based, Leishmania (L.) infantum; conditions: 24 h; compound 2 190 µM, miltefosine 25 μM
Protocol: Promastigotes (2 × 10^6 parasites/well) in mid-log phase were incubated with compound 2 (190 µM) in M-199 medium for 24 h at 24 °C. Parasites were washed and fixed in 70% ice-cold ethanol overnight at −20 °C. After a further wash with PBS 1x, the promastigotes were ressuspended in propidium iodide (10 µg/mL, Molecular Probes) and RNase A (20 µg/mL, Molecular Probes) for 30 min in the dark at room temperature. The fluorescence intensity was analyses using Attune NxT flow cytometer (Thermo Fisher Scientific) with excitation filter wavelengths of 488 nm and emission of 574 nm (BL-2)[47]. Maximum change in the cell cycle was obtained in the presence of miltefosine (25 μM) and untreated parasites were used as negative control. Unstained parasites were used to set background fluorescence.

[9] = test system: L. (L.) infantum promastigotes; test: Ultrastructural analysis by transmission electron microscopy; type: cell-based, Leishmania (L.) infantum; parameters: dose or concentration left out as unconfirmed; conditions: (figure legend), 4 and 6 h
Protocol: […] Then, the parasites were washed, fixed in 2.5% glutaraldehyde in 0.1 M sodium cacodylate buffer (pH 7.3), postfixed in 1% osmium tetroxide. The parasites were dehydrated with acetone series and embedded in Epon resin. Ultrathin sections were stained with uranyl acetate and lead citrate. The material was analyzed under transmission electron microscopy (JEOL JEM-1011). Untreated parasites were used as negative control.

[10] = test system: L. (L.) infantum promastigotes; test: ATP levels, bioluminescence assay; type: cell-based, Leishmania (L.) infantum; conditions: 190 µM, 1 and 2 h, compared to untreated parasites
Protocol: Promastigotes (2 × 10^6 parasites/well) were treated with compound 2 (190 µM) in HBSS + Glu for 1 and 2 h at 24 °C. Untreated parasites and treated with CCCP (25 µM) were included as negative and positive controls, respectively. The promastigotes were lysed using 0.5% Triton X-100 and mixed with a standard reaction buffer (ATP Determination Kit, Molecular Probes) containing DTT (1 mM), luciferin (0.5 mM) and firefly luciferase (1.25 µg/mL)[50]. Luminescence intensity was measured using a luminometer (FilterMax F5 Multi-Mode, Molecular Devices) and the amount of ATP was calculated from an ATP standard curve.

[11] = test system: L. (L.) infantum promastigotes; test: Intracellular calcium levels, Fura-2 AM; type: cell-based, Leishmania (L.) infantum; conditions: 190 µM, 5, 20, 60 and 120 min
Protocol: Promastigotes (2 × 10^6 parasites/well) were pretreated with 5 µM of Fura-2 AM (Molecular Probes) in PBS 1x, for 40 min at 24 °C in the dark. The parasites were washed and treated with compound 2 (190 µM). The fluorescence was measured at 5, 20, 60 and 120 min, using a fluorimetric microplate reader (FilterMax F5 Multi-Mode, Molecular Devices) with excitation and emission wavelengths of 360 and 500 nm, respectively. Maximum levels of calcium were obtained using 0.5% Triton X-100 and untreated parasites were used as negative control.

[12] = test system: Trypanosoma cruzi parasites; conditions: cited from earlier work
[13] = test system: Trypanosoma cruzi parasites; parameters: method as in PMID 28864277; conditions: cited from earlier work
[14] = Mammalian cytotoxicity, MTT colorimetric method; type: cell-based, murine; conditions: mouse, NCTC clone 929 fibroblast cells, up to 200 μM, read-out: CC50 (µM) ± SD NCTC
Protocol: as §1

[15] = test system: Leishmania; conditions: cited from earlier work
[16] = test system: L. (L.) amazonensis; parameters: method as in PMID 20064628; conditions: cited from earlier work
[17] = 96 h at 24 °C, MTT, read-out: IC50 (µM) ± SD Promastigote

Compound: 1-Propyl-3-(1′-propyl-3′-methoxyphenoxy)-4,5-dimethoxybenzene [Compound 3]
- IC50 [1]: 21.7 ± 1.9 µM
- IC50 [2, 17]: 29.6 ± 2.3 µM
- CC50 [3]: 57.7 ± 1.1 µM

Compound: 1-Propyl-3-(1′-propyl-3′-methoxyphenoxy)-5-methoxy-4-benzoyloxybenzene [Compound 2]
- plasma membrane electric potential (ΔΨp), DiSBAC2(3) fluorescence ([4]; 190 µM, 1 and 2 h, compared with untreated parasites): induced a significant (p < 0.0001) depolarization of the potential
- MCP-1 levels ([5]; 60 μM, both macrophage groups): decrease this chemokine in both macrophage groups
- TNF production ([5]; infected macrophages at 30 and 15 μM, uninfected at 60 and 30 μM): reduced the TNF production
- mitochondrial membrane electric potential (ΔΨm), JC-1 BL-2/BL-1 ratio [6]: induced a significant (p < 0.0001) depolarization of the mitochondrial membrane potential
- plasma membrane permeability (Sytox Green fluorescence) [7]: No changes in the fluorescence levels were observed
- Proportion of promastigotes in different stages of cell cycle (% ± SD) G0/G1 [8]: 52.3 ± 1.1 %
- Proportion of promastigotes in different stages of cell cycle (% ± SD) M/G2 [8]: 26.4 ± 0.1 %
- Proportion of promastigotes in different stages of cell cycle (% ± SD) S [8]: 13.7 ± 0.7 %
- Proportion of promastigotes in different stages of cell cycle (% ± SD) Sub G0 [8]: 3.0 ± 0.2 %
- ultrastructural alterations (TEM) [9]: intense swelling of the mitochondria with severe loss of cristae and matrix and concentric membranous structures inside this organelle
- ATP concentration [10]: dose-dependent decrease of ATP concentration
- amastigotes eliminated ([1]; at the highest tested concentration): 100%
- IC50 [1]: 6.1 ± 1.2 µM
- cytosolic Ca2+ levels (Fura-2 AM) [11]: induced a fast up-regulation of calcium levels, in a time-dependent manner
- IC50 [2, 17]: 105 ± 9.4 µM
- IC50 ([2]; after 2 h of incubation, used for mechanism of action assays, read-out: second IC50 value against promastigotes): 190 µM
- CC50 [3]: > 200 µM

Compound: C=CCc1ccc(Oc2cc([C@@H](O)C=C)cc(OC)c2OC)c(OC)c1 [1-[(7S)-hydroxy-8-propenyl]-3-[3′-methoxy-1′-(8′-propenyl)-phenoxy]-4,5-methoxybenzene]
- plasma membrane permeabilization [12]: plasma membrane permeabilization was verified
- depolarization of the mitochondrial membrane [13]: induce depolarization of the mitochondrial membrane

Compound: CCCCCCCCCCCCCCCCOP(=O)([O-])OCC[N+](C)(C)C [Miltefosine, reference compound]
- Proportion of promastigotes in different stages of cell cycle (% ± SD) G0/G1 [8]: 36.4 ± 1.3 %
- Proportion of promastigotes in different stages of cell cycle (% ± SD) M/G2 [8]: 31.4 ± 0.5 %
- Proportion of promastigotes in different stages of cell cycle (% ± SD) S [8]: 12.3 ± 0.1 %
- Proportion of promastigotes in different stages of cell cycle (% ± SD) Sub G0 [8]: 10.1 ± 0.2 %
- IC50 ([1]; Leishmania infantum, Peritoneal macrophage): 6.5 ± 3 µM
- SI (Selectivity Index) ([1]; ratio between CC50 in NCTC cells and IC50 in intracellular amastigotes): 18.4
- IC50 ([2]; Leishmania infantum, 96 h at 24 °C, MTT, read-out: IC50 (µM) ± SD Promastigote): 5.1 ± 0.6 µM
- CC50 [14]: 120 ± 4.2 µM

Compound: O=C(c1ccc(OCCN2CCCCC2)cc1)c1c(-c2ccc(O)cc2)sc2cc(O)ccc12 [Raloxifene, reference compound]
- plasma membrane electric potential (ΔΨp), DiSBAC2(3) fluorescence ([4]; positive control, 60 μM): caused increased levels of fluorescence

Compound: C=CCc1ccc(Oc2cc(CC=C)cc(OC)c2O)c(OC)c1 [dehydrodieugenol B]
- plasma membrane permeabilization [12]: plasma membrane permeabilization was verified

Compound: C/C=C/c1cc(OC)c2c(c1)[C@H](C)[C@@H](c1ccc(O)c(OC)c1)O2 [licarin A]
- anti-Leishmania effect and NO upregulation [15]: anti-Leishmania effect without NO upregulation

Compound: eupomatenoid-5
- depolarization of the mitochondrial membrane [16]: induce depolarization of the mitochondrial membrane
